In PubChem BioAssay (NCI):
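Values below derive from 48-hour exposures of cells grown in 96-well plates, with endpoints linearly interpolated between the two concentrations bracketing the appropriate inhibition level. GI50 marks 50% less growth. TGI is the concentration that stops growth completely.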

Assays:
Experiment in all cases: inhibition of tumour cell growth, NCI panel, 48 h
KM12 colon = system: KM12 colon
OVCAR-3 ovarian = system: OVCAR-3 ovarian
SK-MEL-5 melanoma = system: SK-MEL-5 melanoma
HL-60(TB) leukemia = system: HL-60(TB) leukemia
SNB-19 CNS = system: SNB-19 CNS
LOX IMVI melanoma = system: LOX IMVI melanoma
NCI-H23 lung = system: NCI-H23 lung
SK-MEL-2 melanoma = system: SK-MEL-2 melanoma
HT29 colon = system: HT29 colon
786-0 renal = system: 786-0 renal
OVCAR-4 ovarian = system: OVCAR-4 ovarian
NCI-H522 lung = system: NCI-H522 lung
U251 CNS = system: U251 CNS
MALME-3M melanoma = system: MALME-3M melanoma
UACC-62 melanoma = system: UACC-62 melanoma
COLO 205 colon = system: COLO 205 colon
NCI-H460 lung = system: NCI-H460 lung
A498 renal = system: A498 renal
HS 578T breast = system: HS 578T breast
OVCAR-5 ovarian = system: OVCAR-5 ovarian
ACHN renal = system: ACHN renal
SNB-75 CNS = system: SNB-75 CNS
NCI/ADR-RES ovarian = system: NCI/ADR-RES ovarian
MDA-MB-231 breast = system: MDA-MB-231 breast
NCI-H226 lung = system: NCI-H226 lung
SF-295 CNS = system: SF-295 CNS
RPMI-8226 leukemia = system: RPMI-8226 leukemia
T-47D breast = system: T-47D breast
TK-10 renal = system: TK-10 renal
HCT-15 colon = system: HCT-15 colon
RXF 393 renal = system: RXF 393 renal
UACC-257 melanoma = system: UACC-257 melanoma
DU-145 prostate = system: DU-145 prostate
SW-620 colon = system: SW-620 colon
M14 melanoma = system: M14 melanoma
MDA-MB-435 = system: MDA-MB-435
HCC-2998 colon = system: HCC-2998 colon
EKVX NSCLC = system: EKVX NSCLC
OVCAR-8 ovarian = system: OVCAR-8 ovarian
SN12C renal = system: SN12C renal
CAKI-1 renal = system: CAKI-1 renal
HCT-116 colon = system: HCT-116 colon
SF-268 CNS = system: SF-268 CNS
HOP-92 NSCLC = system: HOP-92 NSCLC
IGROV1 ovarian = system: IGROV1 ovarian
PC-3 prostate = system: PC-3 prostate
MCF7 breast = system: MCF7 breast
BT-549 breast = system: BT-549 breast
SF-539 CNS = system: SF-539 CNS
A549 NSCLC = system: A549 NSCLC
SK-MEL-28 melanoma = system: SK-MEL-28 melanoma
MOLT-4 leukemia = system: MOLT-4 leukemia
HOP-62 NSCLC = system: HOP-62 NSCLC
CCRF-CEM leukemia = system: CCRF-CEM leukemia
UO-31 renal = system: UO-31 renal
SR leukemia = system: SR leukemia
SK-OV-3 ovarian = system: SK-OV-3 ovarian

CCOC(=O)c1c(OCC)[nH]c(=O)c(C(c2cccs2)c2c(O)c(C(=O)OCC)c(OCC)[nH]c2=O)c1O
TGI (KM12 colon): 42.9 µM
TGI (OVCAR-3 ovarian): 30.4 µM
TGI (SK-MEL-5 melanoma): 25.5 µM
TGI (HL-60(TB) leukemia): 40.7 µM
TGI (SNB-19 CNS): 39.8 µM
TGI (LOX IMVI melanoma): 30.7 µM
TGI (NCI-H23 lung): 82.3 µM
TGI (SK-MEL-2 melanoma): 29.9 µM
TGI (HT29 colon): 35.3 µM
TGI (786-0 renal): 59.3 µM
TGI (OVCAR-4 ovarian): 76 µM
TGI (NCI-H522 lung): 27.6 µM
TGI (U251 CNS): 30.3 µM
TGI (MALME-3M melanoma): 25.6 µM
TGI (UACC-62 melanoma): 28.6 µM
TGI (COLO 205 colon): 40.7 µM
TGI (NCI-H460 lung): 39.8 µM
TGI (A498 renal): 23.5 µM
TGI (HS 578T breast): > 100 µM
TGI (OVCAR-5 ovarian): > 100 µM
TGI (ACHN renal): 25.4 µM
TGI (SNB-75 CNS): 9.72 µM
TGI (NCI/ADR-RES ovarian): > 100 µM
TGI (MDA-MB-231 breast): 30.1 µM
TGI (NCI-H226 lung): 27.4 µM
TGI (SF-295 CNS): 49.6 µM
TGI (RPMI-8226 leukemia): > 100 µM
TGI (T-47D breast): 17 µM
TGI (TK-10 renal): 63.7 µM
TGI (HCT-15 colon): 37.5 µM
TGI (RXF 393 renal): 19 µM
TGI (UACC-257 melanoma): 36.9 µM
TGI (DU-145 prostate): 26.9 µM
TGI (SW-620 colon): 34.1 µM
TGI (M14 melanoma): 35.6 µM
TGI (MDA-MB-435): 32.4 µM
TGI (HCC-2998 colon): 35 µM
TGI (EKVX NSCLC): 32.7 µM
TGI (OVCAR-8 ovarian): 41.6 µM
TGI (SN12C renal): 34.6 µM
TGI (CAKI-1 renal): 65.4 µM
TGI (HCT-116 colon): 45 µM
TGI (SF-268 CNS): 35 µM
TGI (HOP-92 NSCLC): 48.2 µM
TGI (IGROV1 ovarian): 28.6 µM
TGI (PC-3 prostate): > 100 µM
TGI (MCF7 breast): 53.9 µM
TGI (BT-549 breast): 22.7 µM
TGI (SF-539 CNS): 28.5 µM
TGI (A549 NSCLC): 32.8 µM
TGI (SK-MEL-28 melanoma): 43.6 µM
TGI (MOLT-4 leukemia): 22.5 µM
TGI (HOP-62 NSCLC): 35.8 µM
TGI (CCRF-CEM leukemia): > 100 µM
TGI (UO-31 renal): 26.7 µM

O=C(NC1CCCCC1)c1ccc(Nc2ncnc3c2cnn3-c2ccccc2)cc1
GI50 (KM12 colon): 57.8 µM
TGI (KM12 colon): > 100 µM
GI50 (OVCAR-3 ovarian): 14.3 µM
TGI (OVCAR-3 ovarian): > 100 µM
GI50 (SK-MEL-5 melanoma): 21.7 µM
TGI (SK-MEL-5 melanoma): > 100 µM
GI50 (SNB-19 CNS): 3.82 µM
TGI (SNB-19 CNS): 18.9 µM
GI50 (LOX IMVI melanoma): 4.49 µM
TGI (LOX IMVI melanoma): 22.3 µM
GI50 (NCI-H23 lung): 10.9 µM
TGI (NCI-H23 lung): 89.9 µM
GI50 (SK-MEL-2 melanoma): 13.6 µM
TGI (SK-MEL-2 melanoma): 36.2 µM
GI50 (786-0 renal): 3.47 µM
TGI (786-0 renal): 18.3 µM
GI50 (NCI-H522 lung): 6.4 µM
TGI (NCI-H522 lung): > 100 µM
GI50 (MALME-3M melanoma): 1.97 µM
TGI (MALME-3M melanoma): 4.94 µM
GI50 (UACC-62 melanoma): 17.5 µM
TGI (UACC-62 melanoma): > 100 µM
GI50 (COLO 205 colon): 12.5 µM
TGI (COLO 205 colon): > 100 µM
GI50 (NCI-H460 lung): 7.09 µM
TGI (NCI-H460 lung): > 100 µM
GI50 (SR leukemia): 11.6 µM
TGI (SR leukemia): 49.1 µM
GI50 (A498 renal): 3.83 µM
TGI (A498 renal): 39.4 µM
GI50 (HS 578T breast): 3.37 µM
TGI (HS 578T breast): 34.2 µM
GI50 (OVCAR-5 ovarian): 15.2 µM
TGI (OVCAR-5 ovarian): 95.2 µM
GI50 (ACHN renal): 3.32 µM
TGI (ACHN renal): 11 µM
GI50 (SNB-75 CNS): 1.71 µM
TGI (SNB-75 CNS): 5.4 µM
GI50 (NCI/ADR-RES ovarian): 7.06 µM
TGI (NCI/ADR-RES ovarian): > 100 µM
GI50 (MDA-MB-231 breast): 5.09 µM
TGI (MDA-MB-231 breast): 21.9 µM
GI50 (NCI-H226 lung): 3.35 µM
TGI (NCI-H226 lung): 21.5 µM
GI50 (SF-295 CNS): 2.98 µM
TGI (SF-295 CNS): 13.3 µM
GI50 (RPMI-8226 leukemia): > 100 µM
TGI (RPMI-8226 leukemia): > 100 µM
GI50 (T-47D breast): 20.2 µM
TGI (T-47D breast): > 100 µM
GI50 (TK-10 renal): 16.5 µM
TGI (TK-10 renal): 49.5 µM
GI50 (HCT-15 colon): 99.3 µM
TGI (HCT-15 colon): > 100 µM
GI50 (RXF 393 renal): 2.43 µM
TGI (RXF 393 renal): 9.33 µM
GI50 (UACC-257 melanoma): 6.42 µM
TGI (UACC-257 melanoma): > 100 µM
GI50 (DU-145 prostate): 10.6 µM
TGI (DU-145 prostate): 48.1 µM
GI50 (SW-620 colon): > 100 µM
TGI (SW-620 colon): > 100 µM
GI50 (M14 melanoma): 18.3 µM
TGI (M14 melanoma): > 100 µM
GI50 (MDA-MB-435): 67.8 µM
TGI (MDA-MB-435): > 100 µM
GI50 (HCC-2998 colon): > 100 µM
TGI (HCC-2998 colon): > 100 µM
GI50 (OVCAR-8 ovarian): 3.87 µM
TGI (OVCAR-8 ovarian): 19.3 µM
GI50 (SN12C renal): 8.26 µM
TGI (SN12C renal): > 100 µM
GI50 (CAKI-1 renal): 14 µM
TGI (CAKI-1 renal): > 100 µM
GI50 (HCT-116 colon): 4.01 µM
TGI (HCT-116 colon): > 100 µM
GI50 (SF-268 CNS): 5.85 µM
TGI (SF-268 CNS): > 100 µM
GI50 (HOP-92 NSCLC): 2.53 µM
TGI (HOP-92 NSCLC): 8.29 µM
GI50 (IGROV1 ovarian): 14.4 µM
TGI (IGROV1 ovarian): 65.9 µM
GI50 (SK-OV-3 ovarian): 2.95 µM
TGI (SK-OV-3 ovarian): 8.7 µM
GI50 (PC-3 prostate): 11.8 µM
TGI (PC-3 prostate): 44.8 µM
GI50 (MCF7 breast): 74.1 µM
TGI (MCF7 breast): > 100 µM
GI50 (BT-549 breast): 5.69 µM
TGI (BT-549 breast): 26.4 µM
GI50 (SF-539 CNS): 3.81 µM
TGI (SF-539 CNS): 17.1 µM
GI50 (A549 NSCLC): 4.38 µM
TGI (A549 NSCLC): 51.3 µM
GI50 (SK-MEL-28 melanoma): 3.79 µM
TGI (SK-MEL-28 melanoma): > 100 µM
GI50 (MOLT-4 leukemia): 75.6 µM
TGI (MOLT-4 leukemia): > 100 µM
GI50 (HOP-62 NSCLC): 2.62 µM
TGI (HOP-62 NSCLC): 8.77 µM
GI50 (CCRF-CEM leukemia): > 100 µM
TGI (CCRF-CEM leukemia): > 100 µM
GI50 (UO-31 renal): 23.9 µM
TGI (UO-31 renal): > 100 µM
